Laboratory results from patent US9662327B2 (AGIOS PHARMACEUTICALS, INC, priority 2011, dated 2017).

Key:
HT1080 cells = test: Cellular assay for IDH1m inhibitors: inhibition of 2-HG production in HT1080 cells (LC-MS); type: cell-based; conditions: Homo sapiens, HT-1080, 48 hours
Procedure: (§1) Cells (e.g., HT1080 or U87MG) are grown in T125 flasks in DMEM containing 10% FBS, 1× penicillin/streptomycin and 500 ug/mL G418. They are harvested by trypsin and seeded into 96 well white bottom plates at a density of 5000 cell/well in 100 ul/well in DMEM with 10% FBS. No cells are plates in columns 1 and 12. Cells are incubated overnight at 37 C in 5% CO2. The next day compounds are made up at 2× concentration and 100 ul are added to each cell well. The final concentration of DMSO is 0.2% and the DMSO control wells are plated in row G. The plates are then placed in the incubator for 48 hours. At 48 hours, 100 ul of media is removed from each well and analyzed by LC-MS for 2-HG concentrations. The cell plate is placed back in the incubator for another 24 hours. At 72 hours post compound addition, 10 mL/plate of Promega Cell Titer Glo reagent is thawed and mixed. The cell plate is removed from the incubator and allowed to equilibrate to room temperature. Then 100 ul of reagent is added to each well of media. The cell plate is then placed on an orbital shaker for 10 minutes and then allowed to sit at room temperature for 20 minutes. The plate is then read for luminescence with an integration time of 500 ms.

IDH1 R132H = IDH1 R132H (Homo sapiens (Human), UniProt O75874, R132H); test: Assays for IDH1 R132H Inhibitors (NADPH/aKG, resazurin detection); type: biochemical; conditions: IDH1 R132H enzyme, Table 3; read-out: R132H IC50
Method in brief: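 Substrate mix held 8 uM NADPH plus 2 mM aKG; buffer was 20 mM Tris pH 7.5 with 150 mM NaCl, 10 mM MgCl2, 0.03% BSA. After 50 min room-temperature reaction, NADPH remaining was detected with 30 μM resazurin mix over 5 min.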

U87R132H (U87MG) cells = test: Cellular assay for IDH1m inhibitors: inhibition of 2-HG production in U87MG (U87R132H) cells (LC-MS); type: cell-based; conditions: Homo sapiens, U-87 MG, 48 hours
Procedure: as §1

Sequence of IDH1 R132H (O75874 whole entry R132H): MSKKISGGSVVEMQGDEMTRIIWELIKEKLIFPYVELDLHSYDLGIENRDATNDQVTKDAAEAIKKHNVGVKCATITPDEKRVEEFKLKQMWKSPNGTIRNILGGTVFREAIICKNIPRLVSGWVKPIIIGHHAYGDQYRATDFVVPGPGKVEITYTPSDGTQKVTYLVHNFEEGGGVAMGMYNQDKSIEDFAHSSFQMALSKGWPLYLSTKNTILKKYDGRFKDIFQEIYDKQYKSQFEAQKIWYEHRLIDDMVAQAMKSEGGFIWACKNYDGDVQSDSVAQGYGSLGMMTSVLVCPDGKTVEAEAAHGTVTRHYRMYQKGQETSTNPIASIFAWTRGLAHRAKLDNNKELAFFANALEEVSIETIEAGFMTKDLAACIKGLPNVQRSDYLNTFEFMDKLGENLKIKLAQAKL

Compound | IC50 (HT1080 cells) [nM] | IC50 (IDH1 R132H) [nM] | IC50 (U87R132H (U87MG) cells) [nM]
[2H]C([2H])([2H])C([2H])(C([2H])([2H])[2H])C1([2H])CN(c2nc(C3CC3)c3c(c2C#N)CC(C)(C)OC3)CCN1C(=O)CC(F)(F)F (stereo in doubt) [Compound 451, (R)-8-cyclopropyl-6-(3-deuterio-3-(perdeuteriopropan-2-yl)-4-(3,3,3-trifluoropropanoyl)piperazin-1-yl)-3,3-dimethyl-3,4-dihydro-1H-pyrano[3,4-c]pyridine-5-carbonitrile] | 1000 to 10000 | < 500 | 1000 to 10000
CCOC(=O)C1CN(c2nc(C3CC3)c3c(c2C#N)CC(C)(C)OC3)CCN1C(=O)Cc1cccs1 (stereo not drawn) [Compound 421, Ethyl 4-(5-cyano-8-cyclopropyl-3,3-dimethyl-3,4-dihydro-1H-pyrano[3,4-c]pyridin-6-yl)-1-(2-(thiophen-2-yl)acetyl)piperazine-2-carboxylate] | 1000 to 10000 | 500 to 1000 | 1000 to 10000
CNC(=O)CC(=O)N1CCN(c2nc(C3CC3)c3c(c2C#N)CC(C)(C)OC3)C[C@H]1C(C)C [Compound 422, (R)-3-(4-(5-cyano-8-cyclopropyl-3,3-dimethyl-3,4-dihydro-1H-pyrano[3,4-c]pyridin-6-yl)-2-isopropylpiperazin-1-yl)-N-methyl-3-oxopropanamide] | 1000 to 10000 | 500 to 1000 | 1000 to 10000
CC(C)[C@@H]1CN(c2nc(C3CC3)c3c(c2C#N)CC(C)(C)OC3)CCN1C(=O)CC(F)(F)F [Compound 423, (R)-8-cyclopropyl-6-(3-isopropyl-4-(3,3,3-trifluoropropanoyl)piperazin-1-yl)-3,3-dimethyl-3,4-dihydro-1H-pyrano[3,4-c]pyridine-5-carbonitrile] | 1000 to 10000 | < 500 | 500 to 1000
COCCCC(=O)N1CCN(c2nc(C3CC3)c3c(c2C#N)CC(C)(C)OC3)C[C@H]1C(C)C [Compound 424, (R)-8-cyclopropyl-6-(3-isopropyl-4-(4-methoxybutanoyl)piperazin-1-yl)-3,3-dimethyl-3,4-dihydro-1H-pyrano[3,4-c]pyridine-5-carbonitrile] | 500 to 1000 | < 500 | 500 to 1000
COCCC(=O)N1CCN(c2nc(C3CC3)c3c(c2C#N)CC(C)(C)OC3)CC1C1CC1 (stereo not drawn) [Compound 425, 8-cyclopropyl-6-(3-cyclopropyl-4-(3-methoxypropanoyl)piperazin-1-yl)-3,3-dimethyl-3,4-dihydro-1H-pyrano[3,4-c]pyridine-5-carbonitrile] | < 500 | < 500 | < 500
CC1(C)Cc2c(C#N)c(N3CCN(C(=O)c4ccoc4)C(C4CC4)C3)nc(C3CC3)c2CO1 (stereo not drawn) [Compound 426, 8-cyclopropyl-6-(3-cyclopropyl-4-(furan-3-carbonyl)piperazin-1-yl)-3,3-dimethyl-3,4-dihydro-1H-pyrano[3,4-c]pyridine-5-carbonitrile] | < 500 | < 500 | 500 to 1000
CC(C)[C@@H]1CN(c2nc(C3CC3)c3c(c2C#N)CC(C)(C)OC3)CCN1C(=O)c1ccon1 [Compound 427, (R)-8-cyclopropyl-6-(3-isopropyl-4-(isoxazole-3-carbonyl)piperazin-1-yl)-3,3-dimethyl-3,4-dihydro-1H-pyrano[3,4-c]pyridine-5-carbonitrile] | 1000 to 10000 | 500 to 1000 | 1000 to 10000
CC(=O)CCC(=O)N1CCN(c2nc(C3CC3)c3c(c2C#N)CC(C)(C)OC3)C[C@H]1C(C)C [Compound 428, (R)-8-cyclopropyl-6-(3-isopropyl-4-(4-oxopentanoyl)piperazin-1-yl)-3,3-dimethyl-3,4-dihydro-1H-pyrano[3,4-c]pyridine-5-carbonitrile] | 1000 to 10000 | < 500 | < 500
CC(C)[C@@H]1CN(c2nc(C3CC3)c3c(c2C#N)CC(C)(C)OC3)CCN1C(=O)CCO [Compound 429, (R)-8-cyclopropyl-6-(4-(3-hydroxypropanoyl)-3-isopropylpiperazin-1-yl)-3,3-dimethyl-3,4-dihydro-1H-pyrano[3,4-c]pyridine-5-carbonitrile] | < 500 | < 500 | < 500
CC1(C)Cc2c(C#N)c(N3CCN(C(=O)CC(F)(F)F)C(C4CC4)C3)nc(C3CC3)c2CO1 (stereo not drawn) [Compound 430, 8-cyclopropyl-6-(3-cyclopropyl-4-(3,3,3-trifluoropropanoyl)piperazin-1-yl)-3,3-dimethyl-3,4-dihydro-1H-pyrano[3,4-c]pyridine-5-carbonitrile] | 500 to 1000 | < 500 | < 500
COC(=O)NCCC(=O)N1CCN(c2nc(C3CC3)c3c(c2C#N)CC(C)(C)OC3)C[C@H]1C(C)C [Compound 431, (R)-methyl 3-(4-(5-cyano-8-cyclopropyl-3,3-dimethyl-3,4-dihydro-1H-pyrano[3,4-c]pyridin-6-yl)-2-isopropylpiperazin-1-yl)-3-oxopropylcarbamate] | 1000 to 10000 | 500 to 1000 | 1000 to 10000
COCCC(=O)N1CCN(c2nc(C3CC3)c3c(c2C#N)CC(C)(C)OC3)C[C@H]1C [Compound 432, (R)-8-cyclopropyl-6-(4-(3-methoxypropanoyl)-3-methylpiperazin-1-yl)-3,3-dimethyl-3,4-dihydro-1H-pyrano[3,4-c]pyridine-5-carbonitrile] | 1000 to 10000 | 500 to 1000 | 1000 to 10000
CC(O)CC(=O)N1CCN(c2nc(C3CC3)c3c(c2C#N)CC(C)(C)OC3)C[C@H]1C(C)C (stereo partly drawn) [Compound 433, 8-cyclopropyl-6-((3R)-4-(3-hydroxybutanoyl)-3-isopropylpiperazin-1-yl)-3,3-dimethyl-3,4-dihydro-1H-pyrano[3,4-c]pyridine-5-carbonitrile] | 500 to 1000 | < 500 | 500 to 1000
COCCC(=O)N1CCN(c2nc(C3CC3)c3c(c2C#N)CC(C)(C)OC3)C[C@H]1C1CC1 [Compound 434, (R)-8-cyclopropyl-6-(3-cyclopropyl-4-(3-methoxypropanoyl)piperazin-1-yl)-3,3-dimethyl-3,4-dihydro-1H-pyrano[3,4-c]pyridine-5-carbonitrile] | < 500 | < 500 | < 500
CC1(C)Cc2c(C#N)c(N3CCN(C(=O)CC(F)(F)F)[C@H](C4CC4)C3)nc(C3CC3)c2CO1 [Compound 435, (R)-8-cyclopropyl-6-(3-cyclopropyl-4-(3,3,3-trifluoropropanoyl)piperazin-1-yl)-3,3-dimethyl-3,4-dihydro-1H-pyrano[3,4-c]pyridine-5-carbonitrile] | < 500 | < 500 | < 500
CC(C)[C@@H]1CN(c2nc(C3CC3)c3c(c2C#N)CC(C)(C)OC3)CCN1C(=O)CCC(=O)OCCO [Compound 458, (R)-2-hydroxyethyl 4-(4-(5-cyano-8-cyclopropyl-3,3-dimethyl-3,4-dihydro-1H-pyrano[3,4-c]pyridin-6-yl)-2-isopropylpiperazin-1-yl)-4-oxobutanoate] | 500 to 1000 |  | < 500
C=CC(=O)N1CCc2c(C3CC3)nc(N3CCN(C(=O)C4CC4)[C@H](C4CC4)C3)c(C#N)c2C1 [Compound 482, (R)-6-acryloyl-3-(4-(cyclopropanecarbonyl)-3-cyclopropylpiperazin-1-yl)-1-cyclopropyl-5,6,7,8-tetrahydro-2,6-naphthyridine-4-carbonitrile] | < 500 |  | < 500
COCCC(=O)N1CCN(c2nc(C3CC3)c3c(c2C#N)CN(S(C)(=O)=O)CC3)C[C@H]1C1CC1 [Compound 487, (R)-1-cyclopropyl-3-(3-cyclopropyl-4-(3-methoxypropanoyl)piperazin-1-yl)-6-(methylsulfonyl)-5,6,7,8-tetrahydro-2,6-naphthyridine-4-carbonitrile] | 1000 to 10000 |  | 1000 to 10000
C#CC(=O)N1CCc2c(C#N)c(N3CCN(C(=O)CCOC)[C@H](C4CC4)C3)nc(C3CC3)c2C1 [Compound 488, (R)-1-cyclopropyl-3-(3-cyclopropyl-4-(3-methoxypropanoyl)piperazin-1-yl)-′7-propioloyl-5,6,7,8-tetrahydro-2,7-naphthyridine-4-carbonitrile] | < 500 |  | < 500
C#CC(=O)N1CCc2c(C#N)c(N3CCN(C(=O)CCO)[C@H](C4CC4)C3)nc(C3CC3)c2C1 [Compound 500, (R)-1-cyclopropyl-3-(3-cyclopropyl-4-(3-hydroxypropanoyl)piperazin-1-yl)-7-propioloyl-5,6,7,8-tetrahydro-2,7-naphthyridine-4-carbonitrile] | 500 to 1000 | 500 to 1000 | 
C=C(C)C(=O)N1CCc2c(C#N)c(N3CCN(C(=O)CCOC)[C@H](C4CC4)C3)nc(C3CC3)c2C1 [Compound 502, (R)-1-cyclopropyl-3-(3-cyclopropyl-4-(3-methoxypropanoyl)piperazin-1-yl)-7-methacryloyl-5,6,7,8-tetrahydro-2,7-naphthyridine-4-carbonitrile] | 500 to 1000 | 500 to 1000 | 
